From patent US5405760A, “Process for producing recombinant McrBC endonuclease and cleavage of methylated DNA” (New England Biolabs, Inc., priority 1992, dated 1995)

Legend:
[1] = test system: DNA from bacteriophages T4αgt βgt dam^h dam1 and T6αgt; assay: McrBC cleavage of 5-hydroxymethylcytosine-containing phage DNA; assay type: biochemical, bacteriophages T4 and T6; conditions: hmC DNA first treated with EcoRI or SspI, then McrBC with GTP
Procedure: (§1) Accordingly, the DNA Escherichia coli W3110(ppvuIIM1.9), which is modified in the sequence CAGCTG at the N^4 position of the central cytosine to generate the sequence CAGm4CTG, was treated with. McrBC in the presence of GTP following embedding of the cultured cells in agarose and subsequent lysis in situ to release the DNA, by standard procedures for in situ digestion. DNA carrying this modification was cleaved into many fragments of sizes smaller than 50 kb. From this evidence it was concluded that McrBC recognizes sequences containing N^4 C. In addition, DNA from bacteriophages T4αgt βgt dam^h dam1 and T6αgt, containing 5-hydroxymethylcytosine in place of cytosine and devoid of N^6 -methyladenine, was first treated with EcoRI or SspI and then treated with McrBC in the presence of GTP. Both of these DNAs were cleaved to produce many fragments smaller than 700 bp. From this evidence it was concluded that McrBC recognizes sequences containing hm5C as well m5C and N^4 -methylcytosine.

[2] = Properties of the McrBC cleavage reaction (pH, ratio of components); assay type: biochemical
From the text: (a) pH optimum: Activity is detectable when the pH of the reaction is lowered to about 5.8.
Higher or lower ratios reduce cleavage activity.

[3] = test system: DNA Escherichia coli W3110(ppvuIIM1.9); assay: McrBC digestion of agarose-embedded M.PvuII-modified cellular DNA; assay type: biochemical
Procedure: as §1

[4] = test system: methylated DNA; assay: McrBC cleavage of plasmid and phage DNA modified by methylases; assay type: biochemical
From the text: The recognition sequence of the endonuclease of the present invention may be determined by mapping the locations of McrBC cleavage in various DNAs and comparing the DNA sequences of these regions for homology.
McrBC was also found to cleave M.AluI-methylated doublestranded pUC19 linearized at the AflIII site to generate fragments of 2.25 kb, 1.9 kb, 1.75 kb, 1.275 kb, 1.15 kb, 1.05 kb 0.94 kb, 0.25 kb and 0.27 kb, consistent with cleavage near nucleotides 250, 2300, 1350 and 325. McrBC also cleaves the following: M.HaeIII-methylated (GGmCC) pUC19 linearized at the AflIII site to generate fragments of 2.25 kb, 1.8 kb, 1.25 kb, 1.05 kb, 0.94 kb, 0.5 kb, and 0.45 kb, consistent with cleavage near nucleotide 1600, 2500, 350 and 550; M.HhaI-methylated (GmCGC) pBR322 near nucleotides 434-494 and near nucleotides 594-548; M.HhaI-methylated pUC19 linearized at the AflIII site to generate bands of 2.25 kb, 1.9 kb, 1.15 kb, and 0.94 kb, consistent with cleavage near nucleotides 0 or 60, 2350, 1500 and 620; M.MspI-modified (mCCGG) pUC19 linearized at the AflIII site to generate bands of 1.6 kb, 1.5 kb, 1.0 kb and 0.9 kb, consistent with cleavage near nucleotides 1500 and 1600. In addition, McrBC degrades the following: M.SssI modified (mCG) pBR322 and M.SssI modified pUC19 DNA; agarose-embedded cellular DNA of Escherichia coli carrying ppvuIIM1.9, which is M.PvuII modified ([…]).
pBR322 was modified by M.AluI by standard methods, cleaved with ClaI, and resuspended at 0.1 μg/μl. This substrate was recleaved with one of four restriction endonucleases that cleave once in pBR322 (AflIII, NdeI, ScaI, or SspI). These reactions (0.4 μg DNA in each, cleaved in a volume of 20 μl with the appropriate buffer supplied by New England Biolabs) were phenol extracted, precipitated by addition of ethanol in the presence of salt, and resuspended in dH2 O. Half of each reaction (0.2 μg) was digested with McrBC (1 μl each of McrBL and McrC; McrBL was similar to McrBL fraction iii of EXAMPLE III; McrC was similar to McrC fraction ii of EXAMPLE III). Reactions were loaded onto an agarose gel, with size standards (pBR322 digested with BstNI; NEB #301-1) and the sizes of the various fragments determined from a log-linear plot of cm migration (from a Polaroid photograph) versus known size of size standards. Sizes of fragments larger than the largest size standard were estimated by extrapolation and are indicated by "~". Sizes were lane 1, size standard: 1857, 1060, 929, 383, 121 bp; lane 2, AflIII+McrBC: >4 kb (faint, partial digest product), ~2.5, ~2.2, 1.7, 0.7 kb; lane 3, AflIII: ~2.6, ~2.1 (expected sizes 2.449, 1.912); lane 4, NdeI+McrBC: ~ 2.2, ~2.1, 1.8, 0.4 kb; lane 5, NdeI: ~2.5, ~2.2 kb (expected sizes 2.272, 2.089); lane 6, McrBC: ~2.2, 1.7, 0.93, 0.66, 0.48 kb; lane 7, ScaI: ~3.7, 0.54 (expected sizes 3.822, 0.541); lane 8, ScaI+McrBC: ~2.1, ~1.9, 1.1, 0.66, 0.60, 0.54 kb; lane 9, SspI: ~3.7, 0.28 kb (expected sizes 4.146, 0.215); lane 10, SspI+McrBC: ~2.2, 1.35, 0.66, 0.56 kb.
DNA used was pUC19 linearized at the AflIII site, obtained by standard procedures, and then methylated (0.8 μg) in a reaction containing 8 μl 10 X buffer (for M.AluI, M.HhaI, and M.HpaII this was 10XM.FnuDII buffer: 500 mM Tris[Cl] pH 7.5, 100 mM EDTA, 50 mM β-mercaptoethanol;for M.HaeIII, 500 mM Tris [Cl] pH 8.5; 500 mM NaCl, 10 mM dithiothreitol; for M.MspI, 500 mM Tris, pH 7.5, 500 mM NaCl, 50 mM β-mercaptoethanol; for M.SssI, 500 mM Tris Cl, pH 8.0, 500 mM NaCl, 100 mM EDTA), 8 μl S-adenosylmethionine (32 mM in 5 mM H2 SO4, 10% ethanol) and 4 μl methylase (M.AluI, 5 units/μl; M.HaeIII, 5 units/μl; M.HhaI, 25 units/μl; M.HpaII, 1-5 units/μl,M.MspI, 5 units/μl, M.SssI, 2 units/μl) in a total volume of 82 μl. Methylation reactions were incubated 90 minutes at 37° C., then heat-killed by incubation for 15 minutes at 67°-70° C. These substrates were then distributed to 6 series of 7 tubes for McrBC titration. […]

## McrBC: DNA endonuclease obtainable from Escherichia coli; components McrBL and McrC, substantially free of McrBS
[1]
  size of fragments produced by cleavage: smaller than 700 bp
[2]
  pH to which the reaction can be lowered with activity detectable: about 5.8
[3]; CAGm4CTG-modified DNA, in the presence of GTP, in situ digestion
  size of fragments produced by cleavage: smaller than 50 kb
[3]; agarose-embedded cellular DNA of Escherichia coli carrying ppvuIIM1.9, M.PvuII modified (GAm4CGTC)
  degradation of substrate DNA: degrades
[4]; Dcm-modified (CmCWGG) pBR322, pUC19 or bacteriophage lambda DNA
  degradation of substrate DNA: does not degrade
[4]; M.AluI-methylated pUC19 linearized at the AflIII site
  cleavage of substrate DNA: cleave
[4]; M.HaeIII-methylated (GGmCC) pUC19 linearized at the AflIII site
  cleavage of substrate DNA: cleaves
[4]; M.HhaI-methylated (GmCGC) pBR322
  cleavage of substrate DNA: cleaves
[4]; M.HhaI-methylated pUC19 linearized at the AflIII site
  cleavage of substrate DNA: cleaves
[4]; M.HpaII-modified (Cm5CGG) pBR322, pUC19 or bacteriophage lambda DNA
  degradation of substrate DNA: does not degrade
[4]; M.MspI-modified (mCCGG) pUC19 linearized at the AflIII site
  cleavage of substrate DNA: cleaves
[4]; M.SssI modified (mCG) pBR322 and pUC19
  degradation of substrate DNA: degrades
[4]; pBR322, pUC19 or bacteriophage lambda modified by both Dcm and M.HpaII
  degradation of substrate DNA: does not degrade
[4]; pBR322 DNA methylated by M.AluI (AGm5CT)
  cleavage of substrate DNA: cleave
